Test system: S. mutans
Assay: Minimal Inhibitory Concentration (MIC) in vitro test against S. mutans
Type: cell-based
Description: The compositions of the present invention comprise an extract of magnolia. As referred to here, such an “extract” of magnolia is an extract from dried cortex, or bark, of a plant from the Magnoliaceae family, such as Magnolia officinalis, (hereinafter “magnolia”) or a synthetic or semi-synthetic equivalent of such an extract or an active component or compound thereof. […] It should be noted that any plant from the Magnoliaceae family is suitable for the present invention and may be used in alternate embodiments, preferably such that the extract comprises an antimicrobially effective concentration of a compound selected from the group consisting of magnolol, honokiol, tetrahydromagnolol, tetrahydrohonokiol, and mixtures thereof.

C=CCc1ccc(O)c(-c2ccc(O)c(CC=C)c2)c1 [honokiol] was tested. Which “bactericidal properties against S. mutans (MIC test)” value (shortened to “bactericidal properties … (MIC test)”) did it give?
Its value is “bactericidal properties”.

How did the “bactericidal properties … (MIC test)” value turn out when C=CCc1ccc(O)c(-c2cc(CC=C)ccc2O)c1 [magnolol] was run?
Its value is “bactericidal properties”.

Which “bactericidal properties … (MIC test)” value does the source give for CCCc1ccc(O)c(-c2ccc(O)c(CCC)c2)c1 [tetrahydrohonokiol] here?
Its value is “bactericidal properties”.

For CCCc1ccc(O)c(-c2cc(CCC)ccc2O)c1 [tetrahydromagnolol], which “bactericidal properties … (MIC test)” value is on record?
Its value is “bactericidal properties”.

Reference: patent US20060140885A1, “Method of reducing oral tissue inflammation using magnolia extract” (priority 2004, published 2006)
